Earlier results in patent US11497742B1, “Pharmaceutical composition for the treatment of Covid-19 infection” (priority 2021, dated 2022).

Experiments:
[1] = molecular target: COVID-19 Mpro (Severe acute respiratory syndrome coronavirus 2, UniProt P0DTD1); conditions: Hussein and Elkhair 2021
[2] = tested on: SARS-CoV-2 infection; conditions: interim analysis, 775 patients, oral

Zn(CQ)Cl2H2O
inhibition of COVID-19 Mpro (molecular docking, low binding energies) [1]: potent inhibitors

CC(C)C(=O)OC[C@H]1O[C@@H](n2ccc(NO)nc2=O)[C@H](O)[C@@H]1O [Molnupiravir]
reduced the risk of hospitalization or death [2]: approximately 50%

Zn(HCQ)Cl2H2O
inhibition of COVID-19 Mpro (molecular docking, low binding energies) [1]: potent inhibitors
